Measurements as given in publication PMC6179248, “Peanut-specific T cell responses in patients with different clinical reactivity” (PLoS ONE, 2018).

Assays:
[1] = test system: PBMC from peanut allergic and non-allergic donors (IFNγ production); test: IFNγ ELISPOT with individual peptides after 14-day in vitro expansion (epitope mapping); type: cell-based, human; settings: SFC per 10^6 PBMC, individual peptide 10 μg/ml, 24 h, after 14-day culture; for IFNg Average SFC (allergics): allergic donors; for IFNg Average SFC (controls): non-allergic controls
Method: (§1) For in vitro expansions, PBMCs were thawed and cultured in RPMI 1640 (Omega Scientific, Tarzana, CA) supplemented with 5% human AB serum (Gemini Bio-Products, West Sacramento, CA) at a density of 2 × 10^6 cells per mL in 24-well plates (Corning, San Diego, CA) and stimulated with peanut extract (10 μg/ml) or peptide pools at 5 μg/mL. Cells were kept at 37°C, 5% CO2, and additional IL-2 (10 U/mL; ThermoFisher, San Diego, CA) was added every 3 days after initial antigenic stimulation. On day 14, cells were harvested and reactivity against peanut extract (10 μg/ml), peanut specific peptide pools (5 μg/ml) and individual peptides (10 μg/ml) was assessed. The production of IL-5 and IFNγ post-stimulation with peanut extract was analyzed in dual ELISPOT assays. Flat-bottom 96-well nitrocellulose plates (Millipore, Bedford, MA) were prepared according to the manufacturer’s instructions and coated with either 10 μg/ml of both anti-human IL-5 (clone TRFK5) and anti-human IFNγ (clone 1-D1K) or anti-human IL-10 (clone 9D7) and anti-human IL-17 (clone MT44.6) (Mabtech, Cincinnati, OH). PBMC were then incubated at a density of 1 × 10^5/well either with peptide pools (5 μg/ml) or individual peptides (10 μg/ml), peanut extract (10 μg/ml), PHA (10 μg/ml), or medium containing 0.25% DMSO (corresponding to the highest percentage of DMSO in the pools/peptides condition) as a control. After 24 h, cells were removed, and plates were incubated with a cocktail containing either biotinylated anti-human IL-5 (1:50 dilution) (clone 5A10) and horseradish peroxidase (HRP)-conjugated anti-human IFNγ (1:200 dilution) (clone 7-B6-1) or biotinylated anti-human IL-17 (1:200 dilution) (clone MT504) anti-human alkaline phosphatase (AP)-conjugated IL-10 (1:200 dilution) (clone 12G8) (Mabtech, Cincinnati, OH) at 37°C. After 2 h, spots corresponding to the biotinylated IL-5 Ab were developed by incubation with Alkaline-phosphatase-Complex (Vector Laboratories, Burlingame, CA) and then visualized by applying the Vector Blue Alkaline Phosphatase Substrate Kit III (Vector Laboratories, Burlingame, CA) according to the manufacturer’s instructions. Spots corresponding to the HRP-conjugated anti-human IFNγ Ab were visualized by incubation with 3-amino-9-ethylcarvazole solution (Sigma-Aldrich, St. Louis, MO). Spots were counted by computer-assisted image analysis (KS-ELISPOT reader, Zeiss, Munich). Each assay was performed in triplicate. The level of statistical significance was determined with a Student t test using the mean of triplicate values of the response against relevant pools or individual peptides versus the response against the DMSO control. Criteria for response positivity were 20 spot-forming cells (SFCs)/10^6 PBMC, p ≤ 0.05, and a stimulation index (SI) ≥ 2. SFCs are measured per 10^5 PBMC, subsequently readings are background subtracted and multiplied by 10 to be expressed as SFC per million PBMC. T cell epitope mapping was performed to determine epitopes from the major peanut allergens Ara h 1, 2 and 3, recognized by peanut allergic (n = 11) and non-allergic (n = 10) donors. As these studies were performed with samples obtained from pediatric patients, available blood sample volumes were limiting. To overcome this limitation, small pools of predicted peptides matched to the HLA molecules expressed in each donor were tested. For each donor, class II binding affinity predictions were performed using algorithms available through the IEDB (www.iedb.org)[18], to identify the top 6 predicted binders for each of the alleles expressed at the four HLA class II loci (DRB1, DRB3/4/5, DQB1, and DPB1). Accordingly, the screening load for each donor was reduced from 400 peptides to a maximum of 48 peptides (6 peptides x ≤8 class II molecules, less for homozygous donors). The six top predicted peptides for each allele were used to generate allele-specific pools, which were in turn used to expand peanut-specific cells in vitro. […]

[2] = test system: PBMC from peanut allergic and non-allergic donors (IL-5 production); test: IL-5 ELISPOT with individual peptides after 14-day in vitro expansion (epitope mapping); type: cell-based, human; settings: SFC per 10^6 PBMC, individual peptide 10 μg/ml, 24 h, after 14-day culture; for IL-5 Average SFC (allergics): allergic donors; for IL-5 Average SFC (controls): non-allergic controls
Method: as §1

Sequence	IFNg Average SFC (allergics) [1] [SFC]	IFNg Average SFC (controls) [1] [SFC]	IL-5 Average SFC (allergics) [2] [SFC]	IL-5 Average SFC (controls) [2] [SFC]
QAGENSIIDNLPEEV [Ara h 3 15-mer, position 461; P19 pool member]	61	0	79	33
EQGAIVTVRGGLRIL [Ara h 3 15-mer, position 296]	142	252	78	205
LLGILVLASVSATHA [Ara h 1 15-mer, position 11]		80		0
GRIRVLQRFDQRSRQ [Ara h 1 15-mer, position 191; P19 pool member]	19	168	227	105
GSRPHYRQISPRVRG [Ara h 3 15-mer, position 216]	0	57	203	287
CMCEALQQIMENQSD [Ara h 2 15-mer, position 116]		0		59
SGFAQEFLQHAFQVD [Ara h 3 15-mer, position 242]	0	88	124	97
RNNPFYFPSRRFSTR [Ara h 1 15-mer, position 171]	0		100	
IPSGFISYILNRHDN [Ara h 1 15-mer, position 266]	0	0	78	180
QEFLRYQQQSRQSRR [Ara h 3 15-mer, position 206; P19 pool member]	15	72	295	47
QSENYEYLAFKTDSR [Ara h 3 15-mer, position 441]	0	95	0	419
RRFYLAGNQEQEFLR [Ara h 3 15-mer, position 196]	0	90	0	750
GSNIFSGFAQEFLQH [Ara h 3 15-mer, position 237]		0		29
QRSKQFQNLQNHRIV [Ara h 1 15-mer, position 201; P19 pool member]	0	65	0	171
EQGAIVTVKGGLRIL [Ara h 3 15-mer, position 271]	0	220	0	182
GRIRVLQRFDQRSKQ [Ara h 1 15-mer, position 191; P19 pool member]	49	197	253	66
AGVALSRLVLRRNAL [Ara h 3 15-mer, position 66]		603		753
FVPHYTLNAHTIVVA [Ara h 3 15-mer, position 386]	117	94	163	70

Sequence	IFNg Average SFC (allergics) [1] [SFC]	IFNg Average SFC (controls) [1] [SFC]	IL-5 Average SFC (allergics) [2] [SFC]	IL-5 Average SFC (controls) [2] [SFC]
NTNAHSIIYALRGRA [Ara h 3 15-mer, position 416; P19 pool member]	0	77	32	163
NHRIVQIEARPNTLV [Ara h 1 15-mer, position 211]		303		427
RCTKLEYDPRCVYDT [Ara h 1 15-mer, position 61]	0	820	195	467
LLGILVLASVSATQA [Ara h 1 15-mer, position 11]		145		0
SRLVLRRNALRRPFY [Ara h 3 15-mer, position 71; P19 pool member]	19	341	27	941
KAMVIVVINKGTGNL [Ara h 1 15-mer, position 451]		43		53
AFQVDDRQIVQNLRG [Ara h 3 15-mer, position 276]	0	0	85	10
DVFIMPAAHPVAINA [Ara h 1 15-mer, position 508]		0		34
ILVAPALFLLAAHAS [Ara h 2 15-mer, position 6]	0	108	0	40
EQENEGSNIFSGFAQ [Ara h 3 15-mer, position 232]	25	0	0	17
SNAPQEIFIQQGRGY [Ara h 3 15-mer, position 86]		0		45
TIVVALNGRAHVQVV [Ara h 3 15-mer, position 396]	415	548	148	567
FCVLVLGASSVTFRQ [Ara h 3 15-mer, position 11]	22	0	0	28
QEFQCAGVALSRTVL [Ara h 3 15-mer, position 61]		34		98
RSSENNEGVIVEVSK [Ara h 1 15-mer, position 356]		0		40
ALFLLAAHASARQQW [Ara h 2 15-mer, position 11]	0	545	11	270
KAMVIVVVNKGTGNL [Ara h 1 15-mer, position 451]	42	28	108	0
QEFECAGVALSRLVL [Ara h 3 15-mer, position 61]		0		138
